From publication PMC9944867, “Mechanistic in vitro studies indicate that the clinical drug–drug interactions between protease inhibitors and rosuvastatin are driven by inhibition of intestinal BCRP and hepatic OATP1B1 with minimal contribution from OATP1B3, NTCP and OAT3” (Pharmacology Research & Perspectives, 2023)
Several values for one entry are separate records, joined by “and”; a condition that tells them apart may be missing. Identical values can stand only once. Like-named read-outs stand apart in the source and are kept apart here. Marks after values point to notes of the source that are not given here.

Assays:
[1] = tested on: intestinal BCRP and hepatic OATP1B1, OATP1B3, NTCP; assay: Mechanistic static prediction of rosuvastatin AUC change (AUCR); settings: predicted AUCR 1.01
[2] = Pharmacokinetic parameters of protease inhibitors in clinical interaction studies with rosuvastatin; settings: calculated, clinical dose of Table 5
[3] = tested on: intestinal BCRP and hepatic OATP1B1, OATP1B3, NTCP; settings: rosuvastatin; ref Elsby et al.[13]; cited from earlier work
human OATP1B3 (SLCO1B3) = target: T1, human OATP1B3 (SLCO1B3) (Homo sapiens, UniProt Q9NPD5); settings: ≥10x [Iin max u]: atazanavir 50 μM, darunavir 15 μM, lopinavir 5 μM, ritonavir 0.3 μM; [3H]-estradiol 17β-D-glucuronide 0.02 μM
T1 sequence (Q9NPD5 1-702): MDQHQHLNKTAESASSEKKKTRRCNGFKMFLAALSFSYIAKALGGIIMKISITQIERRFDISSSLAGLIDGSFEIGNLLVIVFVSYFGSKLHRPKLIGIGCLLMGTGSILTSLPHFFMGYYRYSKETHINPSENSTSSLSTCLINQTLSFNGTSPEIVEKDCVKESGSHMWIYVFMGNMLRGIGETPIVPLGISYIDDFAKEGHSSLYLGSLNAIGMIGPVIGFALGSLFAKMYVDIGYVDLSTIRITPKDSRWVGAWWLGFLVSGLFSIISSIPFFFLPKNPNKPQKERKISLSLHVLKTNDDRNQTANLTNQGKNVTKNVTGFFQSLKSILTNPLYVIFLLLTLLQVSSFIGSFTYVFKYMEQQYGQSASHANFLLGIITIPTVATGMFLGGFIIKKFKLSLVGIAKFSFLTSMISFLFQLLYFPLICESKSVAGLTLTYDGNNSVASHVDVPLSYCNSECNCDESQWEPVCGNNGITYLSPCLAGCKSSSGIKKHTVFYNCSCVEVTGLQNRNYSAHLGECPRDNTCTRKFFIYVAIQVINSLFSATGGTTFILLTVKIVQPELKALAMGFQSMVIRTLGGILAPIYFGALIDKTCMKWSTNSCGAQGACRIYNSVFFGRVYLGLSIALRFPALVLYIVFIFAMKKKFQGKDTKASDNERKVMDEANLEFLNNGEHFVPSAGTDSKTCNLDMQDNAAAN

[4] = tested on: intestinal BCRP and hepatic OATP1B1, OATP1B3, NTCP
[5] = human, in vivo

| SMILES | Reduction in NTCP function reflected by predicted AUCR [1] [%] | [Ig] maximal enterocyte concentration ([2]; (FaFg × ka × dose)/Qent) [µM] | [Iin max u] unbound maximum hepatic inlet concentration [2] [µM] | [Iin max] maximum hepatic inlet concentration [2] [µM] | Predicted AUCR, inhibition of BCRP and OATP1B1 alone (earlier model) [3] | Inhibition of OATP1B3-mediated probe substrate transport, single concentration screen (human OATP1B3 (SLCO1B3)) | inhibition [4] | [Ig] maximal enterocyte concentration [5] | [Iin max u] unbound maximum hepatic inlet concentration [5] [µM] | [Iin max] maximum hepatic inlet concentration [5] |
| --- | --- | --- | --- | --- | --- | --- | --- | --- | --- | --- |
| COC(=O)N[C@H](C(=O)N[C@@H](Cc1ccccc1)[C@@H](O)CN(Cc1ccc(-c2ccccn2)cc1)NC(=O)[C@@H](NC(=O)OC)C(C)(C)C)C(C)(C)C [atazanavir] | 4 | 142 | 4.90 | 35.0 | 2.13 | produced inhibition | ~80% and 75% | – | – | – |
| Cc1cccc(C)c1OCC(=O)N[C@@H](Cc1ccccc1)[C@@H](O)C[C@H](Cc1ccccc1)NC(=O)[C@H](C(C)C)N1CCCNC1=O [lopinavir] | – | – | – | – | – | – | – | 42.4 ^d μM | 0.450 | 22.5 ^d μM |
